The source of these data is patent publication US20260184707A1, “PHARMACEUTICAL COMPOUNDS FOR THE TREATMENT OF COMPLEMENT MEDIATED DISORDERS” (ALEXION PHARMACEUTICALS, INC., priority 2022, published 2026).

This assay deals with T1, Human complement C1s enzyme (Homo sapiens, UniProt P09871).
T1 construct: purified from human serum, Complement Technology, Inc; purchased Complement Technology, Inc; host or cells: human serum (plasma-derived native protein)
T1 sequence (P09871 438-688 limits assumed): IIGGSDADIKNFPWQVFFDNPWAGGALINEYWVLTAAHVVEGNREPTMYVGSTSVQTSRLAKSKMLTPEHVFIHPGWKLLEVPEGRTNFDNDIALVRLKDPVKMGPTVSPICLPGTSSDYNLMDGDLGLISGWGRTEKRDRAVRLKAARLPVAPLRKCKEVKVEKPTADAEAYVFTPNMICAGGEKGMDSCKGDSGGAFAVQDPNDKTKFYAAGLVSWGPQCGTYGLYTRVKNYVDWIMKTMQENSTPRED
T1 sequence (P09871 16-437 partner limits assumed): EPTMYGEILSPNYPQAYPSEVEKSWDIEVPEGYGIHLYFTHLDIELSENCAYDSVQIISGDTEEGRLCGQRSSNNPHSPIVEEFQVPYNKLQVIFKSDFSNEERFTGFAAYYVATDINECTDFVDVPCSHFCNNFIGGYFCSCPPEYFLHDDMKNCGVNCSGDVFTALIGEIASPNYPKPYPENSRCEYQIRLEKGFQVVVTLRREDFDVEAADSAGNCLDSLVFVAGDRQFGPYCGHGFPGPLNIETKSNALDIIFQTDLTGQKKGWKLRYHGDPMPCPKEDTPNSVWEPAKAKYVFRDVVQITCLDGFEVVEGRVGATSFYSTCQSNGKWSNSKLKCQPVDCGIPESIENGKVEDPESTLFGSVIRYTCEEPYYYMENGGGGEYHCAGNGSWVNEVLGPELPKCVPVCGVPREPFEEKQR
As to the kind of experiment: Human C1s enzyme assay. Format: biochemical. The following applies: human complement C1s enzyme 1.16 nM, substrate Z-L-Lys-SBzl, A405; read-out: IC50 (Stars). Here is the method:
The […] values of the compounds of Table 1 were determined with the human C1s enzyme assay described below. Other standard complement assays are also available.
Human complement C1s enzyme (purified from human serum, Complement Technology, Inc.) at 1.16 nM final concentration was incubated with test compound at various concentrations for 5 min at room temperature in 50 mM Tris, 1 M NaCl, pH 7.5. A synthetic substrate Z-L-Lys-SBzl and DTNB (Ellman's reagent) were added to final concentrations of 100 μM each. Absorbance at 405 nm (A405) was recorded at 30 second intervals for […] using a microplate spectrophotometer. IC values were calculated by nonlinear regression of complement C1s reaction rates as a function of test compound concentration.
[…]; ND indicates a compound for which the IC50 value is not determined.

SMILES strings stand for the structures.

Regarding `O=C(CN1C(=O)[C@@H](NCCCc2ccccc2)CC[C@H]1c1ccccc1)NCc1cc2cnccc2[nH]1` (relative stereo) [Compound 489, N-((1H-Pyrrolo[3,2-c]pyridine-2-yl)methyl)-2-((3S*,6S*)-2-oxo-6-phenyl-3-((3-phenylpropyl)amino)piperidin-1-yl)acetamide], the IC50 is above 1000 nM.
The result for `C[C@@H](Nc1cnc(-c2ccccc2F)n([C@@H](C)C(=O)NCc2cc3cnccc3[nH]2)c1=O)c1ccc2oc3ccccc3c2c1` (single isomer, unassigned) [Compound 363, (S*)—N-((1H-pyrrolo[3,2-c]pyridine-2-yl)methyl)-2-(5-(((R)-1-(dibenzo[b,d]furan-2-yl)ethyl)amino)-2-(2-fluorophenyl)-6-oxopyrimidin-1(6H)-yl)propenamide] reads above 1000 nM; that for `C[C@H](C(=O)NCc1cc2cnccc2[nH]1)n1c(-c2ccccc2F)ncc(N[C@H](C)c2ccc3oc4ccccc4c3c2)c1=O` (single isomer, unassigned) [Compound 364, (R*)—N-((1H-pyrrolo[3,2-c]pyridine-2-yl)methyl)-2-(5-(((R)-1-(dibenzo[b,d]furan-2-yl)ethyl)amino)-2-(2-fluorophenyl)-6-oxopyrimidin-1(6H)-yl)propenamide], above 1000 nM; that for `O=C(Cn1c(-c2ccccc2F)ncc(N[C@H](CF)c2ccc3oc4ccccc4c3c2)c1=O)NCc1cc2cnccc2[nH]1` (single isomer, unassigned) [Compound 375, (S*)—N-((1H-pyrrolo[3,2-c]pyridine-2-yl)methyl)-2-(5-((1-(dibenzo[b,d]furan-2-yl)-2-fluoroethyl)amino)-2-(2-fluorophenyl)-6-oxopyrimidin-1(6H)-yl)acetamide], below 100 nM.
The result for `O=C(Cn1c(N2CCCCC2)ncc(NC(CF)c2ccc3oc4ccccc4c3c2)c1=O)NCc1cc2cnccc2[nH]1` (single isomer, unassigned) [Compound 441] reads below 100 nM; that for `O=C(Cn1c(-c2ccccc2)ncc(NCCCc2ccccc2)c1=O)NCc1cc2cnccc2[nH]1` [Compound 1, N-((1H-pyrrolo[3,2-c]pyridin-2-yl)methyl)-2-(6-oxo-2-phen-yl-5-((3-phenylpropyl)amino)-pyrimidin-1(6H)-yl)acetamide], below 100 nM; that for `O=C(Cn1c(-c2ccccc2)ncc(NCCCCc2ccccc2)c1=O)NCc1cc2cnccc2[nH]1` [Compound 2, N-((1H-pyrrolo[3,2-c]pyridin-2-yl)methyl)-2-(6-oxo-2-phen-yl-5-((4-phenylbutyl)amino)-pyrimidin-1(6H)-yl)acetamide], below 100 nM.
As for `O=C(Cn1c(-c2ccccc2)ncc(NCCCCCc2ccccc2)c1=O)NCc1cc2cnccc2[nH]1` [Compound 3, N-((1H-pyrrolo[3,2-c]pyridin-2-yl)methyl)-2-(6-oxo-2-phen-yl-5-((5-phenylpentyl)amino)-pyrimidin-1(6H)-yl)acetamide], the figure is below 100 nM; as for `O=C(Cn1c(-c2ccccc2)ncc(NC(=O)CCCOc2ccccc2)c1=O)NCc1cc2cnccc2[nH]1` [Compound 4, N-(1-(2-(((1H-pyrrolo[3,2-c]pyridin-2-yl)methyl)amino)-2-oxoethyl)-6-oxo-2-phenyl-1,6-dihydropyrimidin-5-yl)-4-phen-oxybutanamide], below 100 nM; as for `O=C(Cn1c(-c2ccccc2)ncc(NC(=O)CCc2ccccc2)c1=O)NCc1cc2cnccc2[nH]1` [Compound 5, N-(1-(2-(((1H-pyrrolo[3,2-c]pyridin-2-yl)methyl)amino)-2-oxoethyl)-6-oxo-2-phenyl-1,6-dihydropyrimidin-5-yl)-3-phenylpropanamide], below 100 nM.
With `O=C(Cn1c(-c2ccccc2)ncc(NCCOc2ccccc2)c1=O)NCc1cc2cnccc2[nH]1` [Compound 6, N-((1H-pyrrolo[3,2-c]pyridin-2-yl)methyl)-2-(6-oxo-5-((2-phenoxyethyl)amino)-2-phen-ylpyrimidin-1(6H)-yl)aceamide], the half-maximal inhibitory concentration (IC50) is below 100 nM.
Regarding `O=C(Cn1c(-c2ccccc2)ncc(NCCCOc2ccccc2)c1=O)NCc1cc2cnccc2[nH]1` [Compound 7, N-((1H-pyrrolo[3,2-c]pyridin-2-yl)methyl)-2-(6-oxo-5-((3-phenoxypropyl)amino)-2-phenylpyrimidin-1(6H)-yl)-acetamide], the IC50 was below 100 nM.
As for `O=C(Cn1c(-c2ccccc2)ncc(NC(=O)c2ccc(Oc3ccccc3)cc2)c1=O)NCc1cc2cnccc2[nH]1` [Compound 8, N-(1-(2-(((1H-pyrrolo[3,2-c]pyridin-2-yl)methyl)amino)-2-oxoethyl)-6-oxo-2-phenyl-1,6-dihydropyrimidin-5-yl)-4-phenoxybenzamide], the figure is below 100 nM.
As for `C[C@H](NC(=O)Cn1c(-c2ccccc2)ncc(NCCCc2ccccc2)c1=O)c1cc2cnccc2[nH]1` [Compound 9, (S)—N-(1-(1H-pyrrolo[3,2-c]pyridin-2-yl)ethyl)-2-(6-oxo-2-phenyl-5-((3-phenylpropyl)amino)pyrimidin-1(6H)-yl)acetamide], the figure is above 1000 nM; as for `C[C@@H](NC(=O)Cn1c(-c2ccccc2)ncc(NCCCc2ccccc2)c1=O)c1cc2cnccc2[nH]1` [Compound 10, (R)-N-(1-(1H-pyrrolo[3,2-c]pyridin-2-yl)ethyl)-2-(6-oxo-2-phenyl-5-((3-phenylpropyl)-amino)pyrimidin-1(6H)-yl)-acetamide], below 100 nM.
As for `O=C(Cn1c(-c2ccccc2)ncc(NCCCCOc2ccccc2)c1=O)NCc1cc2cnccc2[nH]1` [Compound 11, N-((1H-pyrrolo[3,2-c]pyridin-2-yl)methyl)-2-(6-oxo-5-((4-phenoxybutyl)amino)-2-phenylpyrimidin-1(6H)-yl)acetamide], the figure is below 100 nM; as for `C[C@@H](NC(=O)Cn1c(-c2ccccc2)cnc(NCCCc2ccccc2)c1=O)c1cc2cnccc2[nH]1` [Compound 12, (R)-N-(1-(1H-pyrrolo[3,2-c]pyridin-2-yl)ethyl)-2-(2-oxo-6-phenyl-3-((3-phenylpropyl)-amino)pyrazin-1(2H)-yl)-acetamide], 100 to 1000 nM.
`O=C(Cn1c(-c2ccccc2)cnc(NCCCc2ccccc2)c1=O)N[C@H](CO)c1cc2cnccc2[nH]1` [Compound 13, (S)-N-(2-hydroxy-1-(1H-pyr-rolo[3,2-c]pyridin-2-yl)ethyl)-2-(2-oxo-6-phenyl-3-((3-phen-ylpropyl)amino)pyrazin-1(2H)-yl)acetamide]: the IC50 was 100 to 1000 nM.
As for `O=C(Cn1c(-c2ccccc2)cnc(NCCCc2ccccc2)c1=O)N[C@@H](CO)c1cc2cnccc2[nH]1` [Compound 14, (R)-N-(2-hydroxy-1-(1H-pyr-rolo[3,2-c]pyridin-2-yl)ethyl)-2-(2-oxo-6-phenyl-3-((3-phen-ylpropyl)amino)pyrazin-1(2H)-yl)acetamide], the IC50 was above 1000 nM.
As for `O=C(Cn1c(-c2ccccc2)ncc(NCCCc2ccccc2)c1=O)N[C@H](CO)c1cc2cnccc2[nH]1` [Compound 15, (S)-N-(2-hydroxy-1-(1H-pyr-rolo[3,2-c]pyridin-2-yl)ethyl)-2-(6-oxo-2-phenyl-5-((3-phen-ylpropyl)amino)pyrimidin-1(6H)-yl)acetamide], the figure is above 1000 nM; as for `O=C(Cn1c(-c2ccccc2)ncc(NCCCc2ccccc2)c1=O)N[C@@H](CO)c1cc2cnccc2[nH]1` [Compound 16, (R)-N-(2-hydroxy-1-(1H-pyr-rolo[3,2-c]pyridin-2-yl)ethyl)-2-(6-oxo-2-phenyl-5-((3-phen-ylpropyl)amino)pyrimidin-1(6H)-yl)acetamide], above 1000 nM; as for `O=C(Cn1c(-c2ccccc2)cnc(NCCCc2ccccc2)c1=O)NCc1cc2cnccc2[nH]1` [Compound 17, N-((1H-pyrrolo[3,2-c]pyridin-2-yl)methyl)-2-(2-oxo-6-phen-yl-3-((3-phenylpropyl)amino)-pyrazin-1(2H)-yl)acetamide], below 100 nM.
The result for `O=C(Cn1c(-c2ccccc2)ncc(NC(=O)CCCc2ccc(Oc3ccccc3)cc2)c1=O)NCc1cc2cnccc2[nH]1` [Compound 18, N-(1-(2-(((1H-pyrrolo[3,2-c]pyridin-2-yl)methyl)amino)-2-oxoethyl)-6-oxo-2-phenyl-1,6-dihydropyrimidin-5-yl)-4-(4-phenoxyphenyl)butanamide] reads below 100 nM.
As for `O=C(Cn1c(-c2ccccc2)ncc(NCc2ccc(-c3ccccc3)cc2)c1=O)NCc1cc2cnccc2[nH]1` [Compound 19, N-((1H-pyrrolo[3,2-c]pyridin-2-yl)methyl)-2-(5-(([1,1′-biphenyl]-4-ylmethyl)amino)-6-oxo-2-phenylpyrimidin-1(6H)-yl)acetamide], the figure is below 100 nM.
